The subject of this test is 192522-019-R-J2-PDC complex tumor spheroid viability. The test can be described thus: Anticancer human tumor 192522-019-R-J2-PDC patient-derived colon adenocarcinoma cell line growth inhibition [POLQ]. The settings on record: for viability, T/C: stronger effect = lower value. Here is the method:
Multicellular complex tumor spheroid response to Polymerase (POL) inhibitors (novobiocin, ART-558, RP6685) in combination with a variety of drugs and investigational agents in selected tumor cell lines
The POL inhibitors (novobiocin, ART-558, and RP6685) were evaluated both individually and in combination with standard of care and investigational anticancer small molecules within a complex spheroid model of solid tumors. . Complex spheroids include a stromal component modeled by human endothelial cells (HUVEC) and fibroblasts modeled by human mesenchymal stem cells (MSCs). The concentration ranges selected for each drug and investigational agent were based upon clinically achievable concentrations if the clinical Cmax of the agent was known.
Compounds. The drugs and investigational agents: novobiocin (NSC847541), ART-558 (NSC835418), RP-6685 (NSC848927), peposertib (NSC802822), ceralasertib (NSC780249), elimusertib (NSC800525), camonsertib (NSC841442), AZD-1390 (NSC803789), olaparib (NSC753686), talazoparib (NSC767125), rucaparib (NSC756644), sotorasib (NSC818433), MRTX-1133 (NSC836407), SN-38 (NSC673596), topotecan (NSC609699), epotoside (NSC141540), doxorubicin (NSC123127), gemcitabine (NSC613327), 5-fluorouracil (NSC19893), paclitaxel (NSC125973), vemurafenib (NSC761431), MSA-2 (NSC828583), SN-011 (NSC837082), adavosertib (NSC754352), prexasertib (NSC758257), carboplatin (NSC241240) and oxaliplatin (NSC266046), were obtained from the National Cancer Institute (NCI) Developmental Therapeutics Program Chemical Repository (21). The FDA-approved anticancer drug set is available from the Developmental Therapeutics Program at https://dtp.cancer.gov/organization/dscb/obtaining/. […] The stock solutions were prepared in dimethyl sulfoxide (DMSO, Sigma-Aldrich, St. Louis, MO, cat. D2650), except for the platinum compounds which were prepared in saline (Quality Biological, Gaithersburg, MD, cat. 114-055-101), at 800-fold the tested concentration and stored at -70 degrees C prior to their use. All drugs and investigational agents were tested over a range starting from a high concentration at or near the clinical Cmax and decreasing in half-log increments. If the clinical Cmax for an agent had not been determined, the highest concentration tested was 10 microM, except for SN-38, which was tested at a high concentration of 1 microM.
Cell Culture. All cells were maintained in an incubator at 37 degrees C and 5% CO2 with 95% humidity. The PDC lines were cultured according to standard operating procedures established by the NCI PDMR (https://pdmr.cancer.gov). Table 3 of the manuscript, lists the cell lines along with the number of the three cell types plated to form the mct-spheroids and media for tumor cell growth. After thawing, all PDC lines, except 997537-175-T-J1-PDC and 415267-285-R-J2-PDC, were cultured in Matrigel-coated flasks prepared with a working solution of 1X Ham's F-12 nutrient mix, without supplementation (Thermo Fisher Scientific, cat. 11765054), 100 U/mL penicillin-streptomycin (Thermo Fisher Scientific, cat. 15140122), and 2.5% Matrigel (Corning Inc., Corning, NY, cat. 354248) for the first three passages. The two PDC lines 997537-175-T-J1-PDC and 415267-285-R-J2-PDC were cultured on uncoated flasks. The 857933-349-R-J2-PDC line was cultured in 6C/Colon 1B media containing advanced DMEM/F-12 (Thermo Fisher Scientific, cat. 12634028), 10 mM HEPES (Thermo Fisher Scientific, cat. 15630080), 1X GlutaMAX supplement (Thermo Fisher Scientific, cat. 35050061), 0.1 mg/mL primocin (InvivoGen, San Diego, CA, cat. ant-pm-2), 10% defined fetal bovine serum, heat inactivated (HyClone Laboratories Inc., Logan, UT, cat. SH30070.03HI), 50% L-WRN conditioned media (ATCC, cat. CRL-3276), 1.25 mM N-Acetyl-L-cysteine (Sigma-Aldrich, cat. A9165), 10 mM nicotinamide (Sigma-Aldrich, cat. N0636), 1X B-27 supplement (Thermo Fisher Scientific, cat. 17504044), 1X N-2 supplement (Thermo Fisher Scientific, cat. […]

The record followed here is PubChem BioAssay AID1963850 (Molecular Pharmacology Branch, DTP, NCI, 2024).

Structures are written as SMILES. Where “and” joins values, the source holds several entries; their conditions need not be identical. Identical values can stand only once.
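Also: spheroids exposed to drugs for seven days before reading.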
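For viability, T/C in this document: 100% = DMSO vehicle control viability in luminescence.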

Take `C=CCn1c(=O)c2cnc(Nc3ccc(N4CCN(C)CC4)cc3)nc2n1-c1cccc(C(C)(C)O)n1`: the viability, T/C runs as follows: (compound 0.00316 µM) 101% and 105% and 108%; (compound 0.01 µM) 97.8% and 97.2% and 97%; (compound 0.0316 µM) 97.5% and 100% and 99.1%; (compound 0.1 µM) 102% (2×) and 106%; (compound 0.316 µM) 85.8% and 97% and 86.1%; (compound 1 µM) 24.8% and 36.2% and 38.5%. Besides, the IC50 (curve of compound) was 627 nM and 773 nM and 764 nM.
As for `CC(=O)O[C@H]1C(=O)[C@@]2(C)[C@H]([C@H](OC(=O)c3ccccc3)[C@]3(O)C[C@H](OC(=O)[C@H](O)[C@@H](NC(=O)c4ccccc4)c4ccccc4)C(C)=C1C3(C)C)[C@]1(OC(C)=O)CO[C@@H]1C[C@@H]2O`, the viability, T/C is 90.9% and 93% and 91.4% (compound 0.00949 µM); 61.5% and 61.7% and 71.9% (compound 0.03 µM); 56.5% and 58.9% and 54.1% (compound 0.0949 µM); 54.5% and 54.7% and 52.9% (compound 0.3 µM); 54.3% and 56.4% and 57.7% (compound 0.949 µM); 53% and 61.1% and 54.8% (compound 3 µM). In addition, where the note is “curve of compound”, the IC50 is over 3000 nM.
As to `CC(C)n1c(=O)n(C)c2cnc3cc(F)c(-c4ccc(OCCCN5CCCCC5)nc4)cc3c21`, the viability, T/C was 102% and 106% and 98.7% (compound 0.0316 µM); 87.7% and 95.6% and 105% (compound 0.1 µM); 89.9% and 108% and 92.3% (compound 0.316 µM); 114% and 122% and 112% (compound 1 µM); 118% (2×) and 130% (compound 3.16 µM); 92.8% and 101% and 90.6% (compound 10 µM). In addition, for the setting “curve of compound”, the 50% inhibitory concentration (IC50) was over 10000 nM.
Regarding `CC1COCCN1c1cc(-c2ccnn2C)c2ccnc(-c3ccn[nH]3)c2n1` (centres undefined), the viability, T/C is, setting by setting: (compound 0.0316 µM) 97.7% and 93.8% and 106%; (compound 0.1 µM) 76% and 76.1% and 87.4%; (compound 0.316 µM) 43.4% and 45% and 54.1%; (compound 1 µM) 33.5% (2×) and 32.2%; (compound 3.16 µM) 35.1% and 40.1% and 41%; (compound 10 µM) 48% and 44.6% and 47.2%. Moreover, under “curve of compound”, the IC50 is 246 nM and 256 nM and 400 nM.
In the case of `CC1COCCN1c1cc(C2(S(C)(=N)=O)CC2)nc(-c2ccnc3[nH]ccc23)n1` (centres undefined), the viability, T/C is 102% (2×) and 110% (compound 0.0316 µM); 90% and 103% and 101% (compound 0.1 µM); 97% and 97.9% and 103% (compound 0.316 µM); 90.6% and 100% and 91.6% (compound 1 µM); 59.7% and 64.2% and 56.4% (compound 3.16 µM); 31.6% and 37.1% and 31.1% (compound 10 µM). Moreover, under “curve of compound”, the IC50 is 4700 nM and 5780 nM and 4210 nM.
`CCCS(=O)(=O)Nc1ccc(F)c(C(=O)c2c[nH]c3ncc(-c4ccc(Cl)cc4)cc23)c1F`: the viability, T/C by setting is: (compound 0.0316 µM) 96.5% and 100% and 106%; (compound 0.1 µM) 108% and 104% and 96.8%; (compound 0.316 µM) 105% and 96.5% and 104%; (compound 1 µM) 106% and 108% and 97.6%; (compound 3.16 µM) 116% and 106% and 120%; (compound 10 µM) 74% and 82% and 94.8%. The 50% inhibitory concentration (IC50) (curve of compound) is over 10000 nM.
Turning to `CC[C@@]1(O)C(=O)OCc2c1cc1n(c2=O)Cc2cc3c(CN(C)C)c(O)ccc3nc2-1`, the viability, T/C (compound 0.000316 µM) was 113% and 103% and 94.6%; the viability, T/C (compound 0.001 µM) is 94.3% and 94.9% and 92.1%; the viability, T/C (compound 0.00316 µM) was 106% and 97.8% and 101%; the viability, T/C (compound 0.01 µM) is 100% and 106% and 103%; the viability, T/C (compound 0.0316 µM) was 91.9% and 95.4% and 91.8%; the viability, T/C (compound 0.1 µM) was 70.9% and 76% and 51.1%. In addition, the concentration for half-maximal inhibition (IC50) (curve of compound) is over 100 nM.
`CCc1c2c(nc3ccc(O)cc13)-c1cc3c(c(=O)n1C2)COC(=O)[C@]3(O)CC`: the viability, T/C (compound 0.00316 µM) is 109% and 91.9% and 85.5%; the viability, T/C (compound 0.0316 µM) is 70.5% and 78% and 56.7%; the viability, T/C (compound 0.1 µM) was 56.5% and 58.4% and 51.8%; the viability, T/C (compound 0.316 µM) is 44.4% and 42.9% and 32.3%; the viability, T/C (compound 1 µM) was 27.6% and 37.6% and 25.5%. Also, the IC50 (curve of compound) is 128 nM and 200 nM and 50.2 nM.
For the compound `CNCc1ccc(-c2[nH]c3cc(F)cc4c3c2CCNC4=O)cc1`, the viability, T/C (compound 0.0316 µM) was 104% and 103% and 93%; the viability, T/C (compound 0.1 µM) is 98.4% and 101% and 86%; the viability, T/C (compound 0.316 µM) was 104% and 102% and 109%; the viability, T/C (compound 1 µM) is 107% and 120% and 102%; the viability, T/C (compound 3.16 µM) is 100% and 108% and 105%; the viability, T/C (compound 10 µM) is 96.8% and 103% and 92.1%. The 50% inhibitory concentration (IC50) (curve of compound) was over 10000 nM.
`COC1C(OC(N)=O)C(O)C(Oc2ccc3c(O)c(NC(=O)c4ccc(O)c(CC=C(C)C)c4)c(=O)oc3c2C)OC1(C)C` (centres undefined): the viability, T/C was 108% [middle of 13 runs] (compound 0.0316 µM); 106% [middle of 13 runs] (compound 0.1 µM); 106% [middle of 13 runs] (compound 0.316 µM); 103% [middle of 13 runs] (compound 1 µM); 101% [middle of 13 runs] (compound 3.16 µM); 106% [middle of 13 runs] (compound 10 µM). Further, where the note is “compound alone, run of 10/31/2023”, the IC50 is over 10000 nM.

As usually defined, the viability, T/C is the result in the treated group divided by that in the control group, in per cent. Broadly, the IC50 is the concentration that gives 50% inhibition.
